Source: PubChem BioAssay (NCI)
“And” between values parts separate entries of the source, which are not always exact repeats. Equal entries are not always repeated.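 All cell lines were grown in 96-well plates and treated with compound for 48 hours. Here, GI50 denotes the concentration required for 50% inhibition of growth. TGI marks complete inhibition of growth.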

Tests used:
Test in all cases: DTP human tumour cell line panel, 48 h
[1] = test system: SF-268 CNS
[2] = test system: T-47D breast
[3] = test system: NCI-H226 lung
[4] = test system: MDA-MB-435
[5] = test system: MDA-MB-231 breast
[6] = test system: SNB-78 CNS
[7] = test system: LXFL 529 NSCLC
[8] = test system: DMS 273 small cell lung
[9] = test system: DLD-1 colon

Structure (SMILES)	GI50 [1]	TGI [1]	GI50 [2]	TGI [2]	GI50 [3]	TGI [3]	GI50 [4]	TGI [4]	GI50 [5]	TGI [5]	TGI [6]	TGI [7]	TGI [8]	TGI [9]
O=C(Nc1nc(-c2c[nH]c3ccccc23)cs1)c1n[nH]c(=O)c2ccccc12	1.25 µM	> 46.2 µM	> 46.4 µM	> 96.2 µM	12.3 µM	89.8 µM	3.96 µM	> 100 µM	25.7 µM	> 100 µM				
CCCCCCCC(=O)OCC1OC(n2cc(F)c(=O)[nH]c2=O)C(N)C(OC(=O)CCCCCCC)C1O (stereo unspecified)		35.4 µM									39.5 µM	30.9 µM	30.8 µM	
CN(C)CCN1CCC(Cc2ccccc2)CC1	> 80 µM	> 80 µM	> 80 µM	> 80 µM	> 80 µM	> 80 µM	> 80 µM	> 80 µM	> 80 µM	> 80 µM				
COc1cc2c3c(n(C)c(=O)c2cc1OC)-c1cc2c(cc1C3=O)OCO2		> 100 µM		57.3 µM		> 100 µM		> 100 µM		> 100 µM				
CCSc1nc(N=Cc2ccccc2O)c2cn[nH]c2n1	23.9 µM	77.4 µM	33.4 µM	> 100 µM	17.9 µM	73.9 µM	19.7 µM	72.8 µM	12.7 µM	> 100 µM				
O=C(CNc1ccc(Cl)cc1Cl)Nn1c(-c2ccccc2)nc2ccccc2c1=O		21.6 µM		38.5 µM		58.3 µM		30.2 µM		36.7 µM				
CO[C@@H]1CC[C@]2(C)OC[C@H](C)[C@@H]3C[C@@H](C)[C@@H](OC(C)=O)[C@@H]4[C@H]3[C@@H]2O[C@H]4C[C@@]1(C)O	> 100 µM	> 100 µM	> 100 µM	> 100 µM	> 100 µM	> 100 µM	> 100 µM	> 100 µM	> 100 µM	> 100 µM				
CSC[C@H](NC(=O)COc1cccc2cnccc12)C(=O)NC(Cc1ccccc1)C(O)C(=O)N1CSC[C@H]1C(=O)NC(C)(C)C (stereo partly specified)		63 µM		> 100 µM		> 100 µM		> 100 µM		> 100 µM				
O=C(Nc1ncc(Cc2cccc(C(F)(F)F)c2)s1)c1ccc2c(c1)OCCO2	1.13 µM	> 100 µM	0.606 µM	> 100 µM	0.827 µM		0.0352 µM	0.172 µM	0.445 µM	29.7 µM				
NC(=O)c1cc(I)ccc1NC(=O)/C=C/c1ccccc1	1.4 µM	23.7 µM	0.597 µM	> 65.7 µM	1.96 µM	40.3 µM	0.192 µM	0.445 µM	0.769 µM	> 67.2 µM				
COc1ccc(CNc2c3ccccc3nc3ccccc23)cc1F	3.76 µM	15.1 µM	4.39 µM	21.5 µM	2.85 µM	10.4 µM	2.9 µM		3.16 µM	10.7 µM				
CCn1cc(-c2ccnc3[nH]c(-c4cccc(CN(C)C)c4)cc23)c(-c2ccc(NC(=O)N(C)C)cc2)n1	3.03 µM and 2.07 µM	20.9 µM and > 10 µM	13.3 µM and > 10 µM	77.3 µM and > 10 µM	0.25 µM and 0.451 µM	16.2 µM and > 10 µM	4.77 µM and > 10 µM	21.4 µM and > 10 µM	3.52 µM and 2.95 µM	19.8 µM and > 10 µM				
CCN(Cc1c(F)cccc1OC)c1ccc(CO)c(Cl)c1	23.2 µM	> 63.5 µM	0.0467 µM	0.283 µM	0.0328 µM	0.169 µM	16 µM	39 µM	14.5 µM	40.9 µM				
CCOC(=O)c1c(C)c2c(n1Cc1ccccc1)CSCC2=O	19.3 µM	> 100 µM	7.04 µM	45.3 µM	20.2 µM	89.1 µM	17.3 µM	39.1 µM	14.7 µM	51.2 µM				
C[C@H](CCOc1cccc(CC(=O)O)c1)N(Cc1cccc(C(F)(F)F)c1Cl)CC(c1ccccc1)c1ccccc1	5.28 µM	20.3 µM	4.47 µM	33.6 µM	4.49 µM	21.5 µM	7.02 µM	20.2 µM	10.5 µM	25.1 µM				
O=[N+]([O-])c1cccnc1N=Nc1c(O)[nH]c2ccccc12		> 100 µM				> 100 µM		> 100 µM		> 100 µM				
CNc1cc2oc(=O)cc(C)c2cc1C		> 100 µM		> 100 µM		> 100 µM		> 100 µM		> 100 µM				
CC[C@]1(O)C[C@H]2CN(CCc3c([nH]c4ccccc34)C(C(=O)OC)(c3cc4c(cc3OC)N(C)[C@H]3[C@@](O)(C(=O)OC)[C@H](OC(C)=O)[C@]5(CC)[C@@H]6C[C@@H]6CN6CC[C@]43[C@@H]65)C2)C1 (stereo partly specified)	0.0145 µM	10.4 µM			0.0231 µM	> 1.59 µM	< 0.00143 µM	0.00219 µM	0.0075 µM	0.239 µM				
CCN(CCNS(C)(=O)=O)c1ccc(N)c(C)c1	11.3 µM	24.2 µM			15.2 µM	32.2 µM	2.75 µM	6.91 µM	11.8 µM	25.4 µM				
Cc1ccc2c(c1)c1ccc3c(c1n2C)C(=O)C=CC3=O		> 10 µM		5.08 µM		> 10 µM		5.15 µM		6.01 µM				
O=C(c1ccc([N+](=O)[O-])cc1[N+](=O)[O-])N(/N=C/C=C/c1ccccc1)c1nnc(-c2ccccc2)c(-c2ccccc2)n1		> 100 µM				> 100 µM							72.6 µM	> 100 µM
CC1=C(C(=O)Nc2ccccc2)C(c2ccc(Cl)c(Cl)c2)C(C(=O)Nc2ccccc2)=C(C)N1		24.9 µM									53.8 µM	25.6 µM	27.5 µM	25.7 µM
NNc1ncnc2nc[nH]c12	8.24 µM	> 100 µM	3.67 µM	> 100 µM	5.88 µM	> 100 µM	5.57 µM	> 100 µM	2.92 µM	31.7 µM				
NCCCn1c2c(c3ccc([N+](=O)[O-])cc3c1=O)C(=O)c1cc(I)ccc1-2	0.0841 µM	3.43 µM	0.0446 µM	2.08 µM	0.786 µM	26.2 µM	0.223 µM	1.85 µM	1.8 µM	3.48 µM				
CN(Cc1cnc2nc(N)nc(N)c2n1)c1ccc(C(=O)N[C@@H](CCS(=O)(=O)O)C(=O)O)cc1		> 100 µM		> 100 µM		> 100 µM		> 100 µM		> 100 µM				
